Test results reported in patent US7425631B2 (Amgen Inc., priority 2003, dated 2008).
pIC50: −log10 of the molar value.

These molecules were tested against T1, human B1 receptor (Homo sapiens, UniProt P46663) (assay: In vitro assay of human B1 receptor function using calcium flux (aequorin luminescence)). Details: CHO D-/hB1/Aequorin cells, agonist 20 nM des-Arg10-Kallidin (EC80); read-out: binding IC50's to hB1 receptor function.
T1 construct: expressed in transfected cells
T1 sequence (P46663 1-353): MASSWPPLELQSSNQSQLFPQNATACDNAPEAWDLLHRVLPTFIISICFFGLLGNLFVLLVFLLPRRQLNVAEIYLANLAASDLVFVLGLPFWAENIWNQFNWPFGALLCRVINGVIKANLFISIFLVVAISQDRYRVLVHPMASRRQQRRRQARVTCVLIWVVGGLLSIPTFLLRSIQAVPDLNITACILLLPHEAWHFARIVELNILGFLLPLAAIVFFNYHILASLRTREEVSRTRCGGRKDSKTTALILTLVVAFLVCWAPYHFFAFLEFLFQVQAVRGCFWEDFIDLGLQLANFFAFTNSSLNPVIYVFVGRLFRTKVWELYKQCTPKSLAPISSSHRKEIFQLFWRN
Assay type: cell-based
Method: Activation of the Gq linked B1 receptor results in an increase in intracellular calcium. […] Aequorin is a 21-kDa photoprotein that forms a bioluminescent complex when linked to the chromophore cofactor coelenterazine.
Following coelenterazine incubation, an automated flash-luminometer platform was used to dispense the B1 antagonist compounds (dissolved in DMSO and diluted with buffer to the desired concentration (final DMSO concentration <1% DMSO)) to the cell plate, a CCD camera situated underneath the cell plate took 12 images of the cell plate at 5 second intervals to determine if there was any agonist activity with the compounds. The hB1 agonist, des-Arg10-Kallidin, was added to the cell plate and another 12 images were recorded to determine the IC50 of the antagonist(s).

SMILES | pIC50
CC(C)(C)NCc1ccc2c(c1)CCC[C@H]2NC(=O)C[C@@H](NS(=O)(=O)c1ccc(Cl)c(Cl)c1)c1ccccc1 [bm, (3R)-3-(((3,4-dichlorophenyl)sulfonyl)amino)-N-((1R)-6-(((1,1-dimethylethyl)amino)methyl)-1,2,3,4-tetrahydro-1-naphthalenyl)-3-phenylpropanamide] | > 8.00
O=C(CC(NS(=O)(=O)c1ccc(Cl)c(Cl)c1)c1ccc(F)cc1)NC1CCOc2cc(CN3CCCCC3)ccc21 (stereo not shown) [by, 3-(3,4-Dichloro-benzenesulfonylamino)-3-(4-fluoro-phenyl)-N-(7-piperidin-1-ylmethyl-chroman-4-yl)-propionamide] | > 8.00
O=C(C[C@@H](NS(=O)(=O)c1ccc(Cl)c(Cl)c1)c1ccc(F)cc1)N[C@@H]1CCCc2cc(CN3CCCCC3)ccc21 [bz, 3-(3,4-Dichloro-benzenesulfonylamino)-3-(4-fluoro-phenyl)-N-(6-piperidin-1-ylmethyl-1,2,3,4-tetrahydro-naphthalen-1-yl)-propionamide] | > 8.00
COCCNCc1ccc2c(c1)OCC[C@H]2NC(=O)C[C@@H](NS(=O)(=O)c1ccc(Cl)c(Cl)c1)c1ccc(F)cc1 [ce, 3-(3,4-Dichloro-benzenesulfonylamino)-3-(4-fluoro-phenyl)-N-{7-[(2-methoxy-ethylamino)-methyl]-chroman-4-yl}-propionamide] | > 8.00
CC(C)(C)NCc1ccc2c(c1)CCC[C@H]2NC(=O)C[C@@H](NS(=O)(=O)c1ccc(Cl)c(Cl)c1)c1ccc(F)cc1 [cj, N-[6-(tert-Butylamino-methyl)-1,2,3,4-tetrahydro-naphthalen-1-yl]-3-(3,4-dichloro-benzenesulfonylamino)-3-(4-fluoro-phenyl)-propionamide] | > 8.00
CC(C)CNCc1ccc2c(c1)OCC[C@H]2NC(=O)C[C@@H](NS(=O)(=O)c1cccc(C(F)(F)F)c1)c1ccc(F)cc1 [cl, 3-(4-Fluoro-phenyl)-N-[7-(isobutylamino-methyl)-chroman-4-yl]-3-(3-trifluoromethyl-benzenesulfonylamino)-propionamide] | > 8.00
CC(C)(C)NCc1ccc2c(c1)OCC[C@H]2NC(=O)C[C@@H](NS(=O)(=O)c1cccc(C(F)(F)F)c1)c1ccc(F)cc1 [co, N-[7-(tert-Butylamino-methyl)-chroman-4-yl]-3-(4-fluoro-phenyl)-3-(3-trifluoromethyl-benzenesulfonylamino)-propionamide] | > 8.00
O=C(C[C@@H](NS(=O)(=O)c1cccc(C(F)(F)F)c1)c1ccc(F)cc1)N[C@@H]1CCOc2cc(CN3CCCC3)ccc21 [ct, 3-(4-Fluoro-phenyl)-N-(7-pyrrolidin-1-ylmethyl-chroman-4-yl)-3-(3-trifluoromethyl-benzenesulfonylamino)-propionamide] | > 8.00
CC(C)(C)NCc1ccc2c(c1)CCC[C@H]2NC(=O)C[C@@H](NS(=O)(=O)c1cccc(C(F)(F)F)c1)c1cccc([N+](=O)[O-])c1 [cx, N-[6-(tert-Butylamino-methyl)-1,2,3,4-tetrahydro-naphthalen-1-yl]-3-(3-nitro-phenyl)-3-(3-trifluoromethyl-benzenesulfonylamino)-propionamide] | > 8.00
CC(C)(C)NCc1ccc2c(c1)CCC[C@H]2NC(=O)C[C@@H](NS(=O)(=O)c1cccc(C(F)(F)F)c1)c1cccc(C#N)c1 [cy, N-[6-(tert-Butylamino-methyl)-1,2,3,4-tetrahydro-naphthalen-1-yl]-3-(3-cyano-phenyl)-3-(3-trifluoromethyl-benzenesulfonylamino)-propionamide] | > 8.00
CC(C)(C)c1ccc(S(=O)(=O)N[C@H](CC(=O)N[C@@H]2CCCc3cc(CNC4CCC4)ccc32)c2ccc(F)cc2)cc1 [de, 3-(4-tert-Butyl-benzenesulfonylamino)-N-(6-cyclobutylaminomethyl-1,2,3,4-tetrahydro-naphthalen-1-yl)-3-(4-fluoro-phenyl)-propionamide] | > 8.00
CC(C)(C)c1ccc(S(=O)(=O)N[C@H](CC(=O)N[C@@H]2CCCc3cc(CN4CCCCC4)ccc32)c2ccc(F)cc2)cc1 [dh, 3-(4-tert-Butyl-benzenesulfonylamino)-3-(4-fluoro-phenyl)-N-(6-piperidin-1-ylmethyl-1,2,3,4-tetrahydro-naphthalen-1-yl)-propionamide] | > 8.00
CC(C)CNCc1ccc2c(c1)CCC[C@H]2NC(=O)C[C@@H](NS(=O)(=O)c1ccc(C(C)(C)C)cc1)c1ccc(F)cc1 [dj, 3-(4-tert-Butyl-benzenesulfonylamino)-3-(4-fluoro-phenyl)-N-[6-(isobutylamino-methyl)-1,2,3,4-tetrahydro-naphthalen-1-yl]-propionamide] | > 8.00
CC(C)(C)NCc1ccc2c(c1)CCC[C@H]2NC(=O)C[C@@H](NS(=O)(=O)c1ccc(C(C)(C)C)cc1)c1ccc(F)cc1 [do, N-[6-(tert-Butylamino-methyl)-1,2,3,4-tetrahydro-naphthalen-1-yl]-3-(4-tert-butyl-benzenesulfonylamino)-3-(4-fluoro-phenyl)-propionamide] | > 8.00
O=C(C[C@@H](NS(=O)(=O)c1cccc(C(F)(F)F)c1)c1cccc(F)c1)N[C@@H]1CCCc2cc(CN3CCCCC3)ccc21 [dq, 3-(3-Fluoro-phenyl)-N-(6-piperidin-1-ylmethyl-1,2,3,4-tetrahydro-naphthalen-1-yl)-3-(3-trifluoromethyl-benzenesulfonylamino)-propionamide] | > 8.00

Results, then the molecule that gave them:

pIC50 | SMILES
> 8.00 | O=C(C[C@@H](NS(=O)(=O)c1ccc(Cl)c(Cl)c1)c1cccc(F)c1)N[C@@H]1CCCc2cc(CNC3CCCC3)ccc21 [dx, N-(6-Cyclopentylaminomethyl-1,2,3,4-tetrahydro-naphthalen-1-yl)-3-(3,4-dichloro-benzenesulfonylamino)-3-(3-fluoro-phenyl)-propionamide]
> 8.00 | O=C(C[C@@H](NS(=O)(=O)c1cccc(C(F)(F)F)c1)c1ccc(F)cc1)N[C@@H]1CCCc2cc(CN3CCC(F)CC3)ccc21 [eb, 3-(4-Fluoro-phenyl)-N-[6-(4-fluoro-piperidin-1-ylmethyl)-1,2,3,4-tetrahydro-naphthalen-1-yl]-3-(3-trifluoromethyl-benzenesulfonylamino)-propionamide]
> 8.00 | O=C(C[C@@H](NS(=O)(=O)c1ccc(Cl)c(Cl)c1)c1cccc(Cl)c1)N[C@@H]1CCCc2cc(CN3CCCCC3)ccc21 [ed, 3-(3-Chloro-phenyl)-3-(3,4-dichloro-benzenesulfonylamino)-N-(6-piperidin-1-ylmethyl-1,2,3,4-tetrahydro-naphthalen-1-yl)-propionamide]
> 8.00 | CC(C)(C)NCc1ccc2c(c1)OCC[C@H]2NC(=O)C[C@@H](NS(=O)(=O)c1cc(C(F)(F)F)ccc1Cl)c1ccc(F)cc1 [ej, N-[7-(tert-Butylamino-methyl)-chroman-4-yl]-3-(2-chloro-5-trifluoromethyl-benzenesulfonylamino)-3-(4-fluoro-phenyl)-propionamide]
> 8.00 | CC(C)(C)NCc1ccc2c(c1)CCC[C@H]2NC(=O)C[C@H](NS(=O)(=O)c1cccc(C(F)(F)F)c1)c1ccc([N+](=O)[O-])cc1 [em, N-[6-(tert-Butylamino-methyl)-1,2,3,4-tetrahydro-naphthalen-1-yl]-3-(4-nitro-phenyl)-3-(3-trifluoromethyl-benzenesulfonylamino)-propionamide]
> 8.00 | O=C(CC(NS(=O)(=O)c1cccc(C(F)(F)F)c1)c1ccc(Cl)cc1)N[C@@H]1CCCc2cc(CN3CCCCC3)ccc21 (stereo partly shown) [ex, 3-(4-Chloro-phenyl)-N-(6-piperidin-1-ylmethyl-1,2,3,4-tetrahydro-naphthalen-1-yl)-3-(3-trifluoromethyl-benzenesulfonylamino)-propionamide]
> 8.00 | O=C(CC(NS(=O)(=O)c1cccc(C(F)(F)F)c1)c1cc(Cl)cc(Cl)c1)N[C@@H]1CCCc2cc(CN3CCCCC3)ccc21 (stereo partly shown) [fb, 3-(3,5-Dichloro-phenyl)-N-(6-piperidin-1-ylmethyl-1,2,3,4-tetrahydro-naphthalen-1-yl)-3-(3-trifluoromethyl-benzenesulfonylamino)-propionamide]
> 8.00 | O=C(CC(NS(=O)(=O)c1cccc(C(F)(F)F)c1)c1ccccc1F)N[C@@H]1CCCc2cc(CN3CCCCC3)ccc21 (stereo partly shown) [fg, 3-(2-Fluoro-phenyl)-N-(6-piperidin-1-ylmethyl-1,2,3,4-tetrahydro-naphthalen-1-yl)-3-(3-trifluoromethyl-benzenesulfonylamino)-propionamide]
> 8.00 | O=C(CC(NS(=O)(=O)c1cccc(C(F)(F)F)c1)c1ccc(F)cc1)N[C@@H]1CCCc2cc(CN3CCCCC3)ccc21 (stereo partly shown) [fh, 3-(4-Fluoro-phenyl)-N-(6-piperidin-1-ylmethyl-1,2,3,4-tetrahydro-naphthalen-1-yl)-3-(3-trifluoromethyl-benzenesulfonylamino)-propionamide]
> 8.00 | O=C(C[C@@H](NS(=O)(=O)c1cccc(C(F)(F)F)c1)c1ccc(F)cc1)N[C@@H]1CCCc2cc(CNC3CCCC3)ccc21 [n, (3R)-N-((1R)-6-((cyclopentylamino)methyl)-1,2,3,4-tetrahydro-1-naphthalenyl)-3-(4-fluorophenyl)-3-(((3-(trifluoromethyl)phenyl)sulfonyl)-amino)propanamide]
